Source: US4111945A, “Process for the preparation of 3,4,5-trimethoxy-phenyl-(1,4-dimethyl-1,2,3,6-tetrahydro-2-pyridyl)-carb inol” (Laboratories Made, S.A., priority 1976, dated 1978)

What was measured:
Type in all cases: in vivo
Swiss ICR mice = test: Acute toxicity, intraperitoneal (Litchfield-Wilcoxon); conditions: Swiss ICR mice of both sexes, 25 ± 2 g
Description: (§1) Acute toxicity studies were made in Swiss ICR mice of both sexes weighing 25 ± 2 g. The products were administered intraperitoneally. Acute toxicity calculations were made by the Litchfield-Wilcoxon method.

Swiss ICR albino mice [1] = test: Thermal analgesia, hot-plate technique at 55° C.; conditions: for Jumping time (mean ± S.E.M.): 30 mg/kg, intraperitoneal, 30 minutes, hot-plate 55° C., control 50.1 ± 3.16
Description: The thermal analgesia effect was studied in Swiss ICR albino mice. The hot-plate technique at 55° C. was used. The […] were divided into batches of 10.
The products being studied were administered intraperitoneally and after 30 minutes the animals were placed on the hot-plate, the time in seconds being counted until the animals started to jump. Batches of control animals which had received injections of distilled water only were used.

Swiss ICR albino mice [2] = test: Chemical analgesia, acetic acid writhing technique
Description: The analgesic effect was studied in Swiss ICR albino mice using the acetic acid writhing technique. The animals were divided into batches of 10.
The products studied were administered intraperitoneally and after 30 minutes 0.25 ml of 1% acetic acid was injected intraperitoneally. A batch of control animals was given only the acetic acid. The number of writhings made by each mouse in the 20 minutes after the administration of the acetic acid was counted.

[3] = Acute toxicity, intraperitoneal (Litchfield-Wilcoxon); conditions: mouse, in vivo, ip, Swiss ICR mice of both sexes, 25 ± 2 g, read-out: Lethal Dose 50 (LD50)
Description: as §1

SMILES | Lethal Dose 50 (LD50) (Swiss ICR mice) [mg/kg] | Jumping time (mean ± S.E.M.) (Swiss ICR albino mice [1]) [s] | No. of writhings (mean ± S.E.M.) (Swiss ICR albino mice [2]; 30 mg./kg., intraperitoneal, 30 minutes before acetic acid, counted over 20 minutes, control 93) | chemical analgesic activity (Swiss ICR albino mice [2]; conclusion in words, compared with dextropropoxyphene) | LD50 [3] [mg/kg] | thermal analgesic activity (Swiss ICR albino mice [1]; conclusion in words)
CCC(=O)O[C@](Cc1ccccc1)(c1ccccc1)[C@H](C)CN(C)C [Dextropropoxyphene, dextropropoxyphene, reference compound] | 140 | 91 ± 17.17 |  |  |  | 
COc1cc(C(O)C2CC(C)=CCN2C)cc(OC)c1OC (stereo not shown) [Product VIII, 3,4,5-trimethoxyphenyl-(1,4-dimethyl-1,2,3,6-tetrahydro-2-pyridyl)-carbinol] |  | 51.8 ± 5.46 | 58.8 ± 10.2 | same intensity as dextropropoxyphene | 201 | lacks thermal analgesic activity
